We go through three molecules from US20250360116A1, “PICOLINIC-2-CARBOXAMIDE HYBRIDIZED WITH ANTHRAQUINONE DERIVATIVES, METHODS OF PREPARATION, AND A PHARMACEUTICAL COMPOSITION COMPRISING THE SAME” (AL-ZAYTOONAH UNIVERSITY OF JORDAN, priority 2023, published 2025).

Marks after values point to notes of the source that are not given here.

One experiment deals with Triton WR-1339 induced hyperlipidemic Wistar Rats. The experiment is described as follows: Plasma lipid levels in triton WR-1339 induced hyperlipidemia in rats. The conditions noted are these: 20 mg/kg intragastric after triton WR-1339 200 mg/Kg i.p.; about 6 hours; mean ± SEM, five rats. In kind it is in vivo. On the procedure:
The study was conducted on twenty-five adult male Wistar Rats weighting 200±10 g. Wistar Rats were bred in the animal care center of Faculty of Pharmacy in Al-Zaytoonah University of Jordan. The animals were kept on 12 hours' light/dark cycle, at room temperature (25±1° C.) with free access to food and water. The rats were divided randomly into five groups each consist of five rats, whereby Group I was the normal control group (“NCG”) that received an intraperitoneal administration of normal saline, Group II was the hyperlipidemic control group (“HCG”) that received an intraperitoneal injection of about 200 mg/Kg triton WR-1339 dissolved in about 4% dimethylsulfoxide (“DMSO”)/corn oil, Groups (III, IV, V) rats received intraperitoneal injection of about 200 mg/Kg triton WR-1339.
After about 6 hours of treatment, the rats were anaesthetized with diethyl ether and blood was collected. The blood samples were immediately centrifuged at about 3000 rpm for about 10 minutes and the serum was used for lipid profile measurements (TG, LDL-C, TC and HDL-C) by an automated chemistry analyzer (Model Erba XL-300, Mannheim, Germany). Furthermore, liver samples were collected, and then kept in liquid nitrogen, and stored at (−80° C.) for the mRNA extraction as described in Example 5 below.
The plasma of TG, TC, LDL-C and HDL-C levels in HCG treated at 6 hours after administration of triton WR-1339 are shown in FIG. 2.
After the injection of Wistar Rats with Triton WR-1339 in Example 3, Groups III, IV, V received an intragastric administration of (20 mg/kg by weight) of compounds C1, C2 and C3, respectively, dissolved in about 4% DMSO/corn oil. FIGS. 3, 4, 5, 6 illustrate bar charts showing the effect of the compounds C1, C2, and C3 on the Triton WR-1339 induced hyperlipidemic Wistar Rats after about 6 hours of treatment on TG, TC, LDL-C, and HDL-C.
Take `O=C(Nc1cccc2c1C(=O)c1ccccc1C2=O)c1ccccn1` [Compound C1, N-(9,10-dioxo-9,10-dihydroanthracen-1-yl) picolinamide]: the “HDL-C (plasma)” value is on record as 56 ± 4.6 ^b mg/dl, the “LDL-C (plasma)” value was 6 ± 0.7 ^b mg/dl, the “TC (plasma)” value was 42 ± 10 ^b mg/dl and the “TG (plasma)” value was 145 ± 14.2 ^b mg/dl.

For `O=C(Nc1ccc2c(c1)C(=O)c1ccccc1C2=O)c1ccccn1` [Compound C2, N-(9,10-dioxo-9,10-dihydroanthracen-2-yl) picolinamide], the “HDL-C (plasma)” value is given as 38 ± 4.4 ^a mg/dl, the “LDL-C (plasma)” value is 9 ± 0.6 ^a mg/dl, the “TC (plasma)” value was 75 ± 15.2 ^a mg/dl and the “TG (plasma)” value is given as 985 ± 15.3 ^a mg/dl.

On to `O=C(Nc1ccc(O)c2c1C(=O)c1ccccc1C2=O)c1ccccn1` [Compound C3, N-(4-hydroxy-9,10-dioxo-9,10-dihydroanthracen-1-yl) picolinamide], for which the “HDL-C (plasma)” value amounted to 22 ± 2 mg/dL, the “LDL-C (plasma)” value is on record as 11 ±1.2 ^ mg/dl, the “TC (plasma)” value worked out at 122 ± 11 mg/dL and the “TG (plasma)” value stood at 1375 ± 23 mg/dL.

Staying with this experiment, now noted: in words, in comparison with HCG; 20 mg/kg intragastric; 6 hours.
Turning to `O=C(Nc1cccc2c1C(=O)c1ccccc1C2=O)c1ccccn1` [Compound C1, N-(9,10-dioxo-9,10-dihydroanthracen-1-yl) picolinamide], the “Effect on elevated TC levels” value was “significantly decreased”, the “Effect on elevated plasma LDL-C levels” value is recorded as “significantly lowered”, the “Effect on elevated plasma TG levels” value was “significantly decreased” and the “Effect on plasma HDL-C levels” value was “significantly increased”.

For `O=C(Nc1ccc2c(c1)C(=O)c1ccccc1C2=O)c1ccccn1` [Compound C2, N-(9,10-dioxo-9,10-dihydroanthracen-2-yl) picolinamide], the “Effect on elevated TC levels” value is “significantly decreased”, the “Effect on elevated plasma LDL-C levels” value is recorded as “significantly lowered”, the “Effect on elevated plasma TG levels” value is given as “significantly decreased” and the “Effect on plasma HDL-C levels” value was “significantly increased”.

Consider `O=C(Nc1ccc(O)c2c1C(=O)c1ccccc1C2=O)c1ccccn1` [Compound C3, N-(4-hydroxy-9,10-dioxo-9,10-dihydroanthracen-1-yl) picolinamide], for which the “Effect on elevated TC levels” value is “non-significant effect”, the “Effect on elevated plasma LDL-C levels” value is “non-significant effect”, the “Effect on elevated plasma TG levels” value is reported as “non-significant effect” and the “Effect on plasma HDL-C levels” value is reported as “non-significant effect”.
